Laboratory results as given in US8796246B2, “9, 10-secopregnane derivative and pharmaceutical” (Nippon Shinyaku Co., Ltd., priority 2006, dated 2014).

Assays:
[1] = test system: human acute myelogenous leukemia cell line HL-60; assay: Ability to induce differentiation of HL-60 cells (oxygen radical production after phorbol ester, WST-1); assay type: cell-based; details: 72 hours incubation, then WST-1 and phorbol 12,13-didecanoate for 4 hours, absorbance at 450 nm
From the text: It is known that the human acute myelogenous leukemia cell line HL-60is differentiated into neutrophil-like cells by active vitamin D or the like. Thus, the cells after the differentiation begin to express a surface marker such as CD11and CD32and, at the same time, they produce an oxygen radical by stimulation with a phorbol ester or the like. In this test, the above-mentioned property was utilized. As an index of the ability to induce differentiation of the HL-60cells, the amount of the oxygen radical produced by stimulation with a phorbol ester was measured, and the compounds of the invention mentioned in Examples were compared with maxacalcitol with respect to the vitamin D3activity thereof. In use of commercial reagents and kits, if any, the indications attached thereto were referred to.
HL-60cells (supplied from ATCC) were seeded on a 96-well plate at 5×10^3cells/100μL/well and a test compound in two-fold dilution series from 10^−7M was added to the second to the twelfth rows (maximum concentration: the second row). The first row was used for blank. After incubation for 72 hours under a moisturized condition in the presence of 5% CO2 at 37° C. using a CO2 incubator, 10 μL of PBS containing 50 mM WST-1 (manufactured by Takara Bio) and 10 μM phorbol 12,13-didecanoate (manufactured by SIGMA) were added to each well followed by further incubation for 4 hours. Absorbance (reference wavelength: […]) at […] of the WST-1 formazane dye generated by conversion from WST-1 by oxygen radical produced from the differentiated HL-60 cells was measured by a Benchmark microplate reader (manufactured by BioRad). An absorbance meter control software MPM3 (manufactured by BioRad) was used and, from a concentration-absorbance curve, the 50%-maximal effective concentration (hereinafter, referred to as “EC50”) of each was determined by a logistic curve regression.

[2] = Metabolic rate in human liver microsome; assay type: in vitro ADME; details: pooled human liver microsome 1 mg/mL protein, NADPH-regenerating system, 37° C., 2-60 minutes, HPLC
Description: The compounds of the invention mentioned in Examples and maxacalcitol were compared with each other with respect to the metabolic rate in human liver microsome.
As to the pooled human liver microsome (HHM-0323), those manufactured by Tissue Transformation Technologies were used. A 0.25 M potassium phosphate buffer (pH 7.4) (200 μL), 5 μL of a 250 μM solution of each compound to be tested in DMSO, 50 μL of an NADPH-regenerating system (where 20 mg of β-NADP^+, 70 mg of glucose-6-phosphate, 40 units of glucose-6-phosphate dehydrogenase and 20 mg of magnesium chloride were dissolved in 1 mL of distilled water) and 220 μL of distilled water were added to a microtube and the mixture was subjected to a preincubation for 5 minutes at 37° C. Reaction was started by an addition of 25 μL of human liver microsome (final concentration of protein: 1 mg/mL). Incubation was performed for 2, 10, 30 or 60 minutes and the reaction was stopped by an addition of 500 μL of acetonitrile. After centrifugation at 13,000 rpm for 5 minutes, each test compound in the supernatant (25 μL) was measured by HPLC under the following conditions.
Inertsil ODS-3 (4.6×150 mm; GL Science) was used as a column. With regard to the mobile phase, a solution A (acetonitrile/0.1% aqueous solution of ammonium acetate=10/90) and a solution B (acetonitrile/0.1% aqueous solution of ammonium acetate=90/10) were used under the linear gradient conditions mentioned in Tables 5 to 7. The column temperature, the flow rate and the wavelength for detection were set at 40° C., 1.0 mL/min. and UV 250 or 270 nm, respectively.
The compound mentioned in Example 38 was analyzed under the condition shown in Table 6; the compounds mentioned in Examples 55, 56, 68, 69, 72 and 73 were under the condition shown in Table 7; and the other compounds were under the condition shown in Table 5.
The compounds described in Examples 40, 43 to 48, 50, 55, 56, 58, 60, 61, 63 and 65 to 73 were analyzed under the condition of UV 250 nm; and the other compounds were under the condition of UV 270 nm.
From the HPLC test results as above, the metabolic rate of the test compound was calculated.

| Molecule | EC50 [1] [nM] | Metabolic Rate [2] [pmol/min/mg] |
| --- | --- | --- |
| CC(OC(=O)CCC(C)(O)C(F)(F)F)C1CCC2C(=CC=C3CC(O)C(C)C(O)C3)CCCC21C [Compound of Example 60, (1R,2α,3R,20S)-2-methyl-19-nor-20-(5,5,5-trifluoro-4-hydroxy-4-methylpentanoyloxy)-9,10-secopregna-5Z,7E-diene-1,3-diol] | 0.053 | 78 |
| C=C1C(=CC=C2CCCC3(C)C2CCC3C(C)OC(=O)CC(=O)C(O)(CC)CC)CC(O)CC1O [Compound of Example 28, (1S,3R,20S)-20-(4-ethyl-4-hydroxy-3-oxo-hexanoyloxy)-9,10-secopregna-5Z,7E,10(19)-triene-1,3-diol] | 1.7 |  |
| CC1[C@H](O)CC(=C/C=C2\CCC[C@]3(C)[C@@H]([C@H](C)OC(=O)CCCC(C)(C)O)CC[C@@H]23)C[C@H]1O (stereo partly drawn) [Compound of Example 58, (1R,2α,3R,20S)-2-methyl-19-nor-20-(5-hydroxy-5-methylhexanoyloxy)-9,10-secopregna-5Z,7E-diene-1,3-diol] | 0.53 | 29 |
| C=C1C(O)CC(=CC=C2CCCC3(C)C2CCC3C(C)OC(=O)CCC(C)(C)O)CC1O [Compound of Example 41, (1R,3R,20S)-2-methylene-19-nor-20-(4-hydroxy-4-methylpentanoyloxy)-9,10-secopregna-5Z,7E-diene-1,3-diol] | 0.26 | 46 |
| C=C1C(O)CC(=CC=C2CCCC3(C)C2CCC3C(C)OC(=O)C=CC(O)(CC)CC)CC1O [Compound of Example 45, (1R,3R,20S)-2-methylene-19-nor-20-[(2E)-4-ethyl-4-hydroxyhex-2-enoyloxy]-9,10-secopregna-5Z,7E-diene-1,3-diol] | 0.31 | 40 |
| C=C1C(=CC=C2CCCC3(C)C2CCC3C(C)OC(=O)CC(O)C(C)C)CC(O)CC1O [Compound of Example 5, (1S,3R,20S)-20-(3-hydroxy-4-methylpentanoyloxy)-9,10-secopregna-5Z,7E,10(19)-triene-1,3-diol] | 0.86 |  |
| C=C1C(=CC=C2CCCC3(C)C2CCC3C(C)OC(=O)CC(O)(C(F)(F)F)C(F)(F)F)CC(O)CC1O [Compound of Example 7, (1S,3R,20S)-20-[4,4,4-trifluoro-3-hydroxy-3-(trifluoromethyl)butanoyloxy]-9,10-secopregna-5Z,7E,10(19)-triene-1,3-diol] | 0.38 |  |
| C=C1C(=CC=C2CCCC3(C)C(C(C)OC(=O)CCC(C)(C)O)=CCC23)CC(O)CC1O [Compound of Example 39, (1S,3R,20S)-20-(4-hydroxy-4-methylpentanoyloxy)-9,10-secopregna-5Z,7E,10(19),16-tetraene-1,3-diol] | 1.4 | 26 |
| C=C1C(=CC=C2CCCC3(C)C2CCC3C(C)OC(=O)CCCC(C)(C)O)CC(O)CC1O [Compound of Example 3, (1S,3R,20S)-20-(5-hydroxy-5-methylhexanoyloxy)-9,10-secopregna-5Z,7E,10(19)-triene-1,3-diol] | 4.5 | 22 |
| CCC(O)(C=CC(=O)OC(C)C1CCC2C(=CC=C3CC(O)C(C)C(O)C3)CCCC21C)CC [Compound of Example 65, (1R,2α,3R,20S)-2-methyl-19-nor-20-[(2E)-4-ethyl-4-hydroxyhex-2-enoyloxy]-9,10-secopregna-5Z,7E-diene-1,3-diol] | 0.29 | 29 |
| C=C1C(=CC=C2CCCC3(C)C2CCC3C(C)OC(=O)C=CC(O)(CC)CC)CC(O)CC1O [Compound of Example 10, (1S,3R,20S)-20-[(2E)-4-ethyl-4-hydroxyhex-2-enoyloxy]-9,10-secopregna-5Z,7E,10(19)-triene-1,3-diol] | 0.99 | 58 |
| C=C1C(=CC=C2CCCC3(C)C2CCC3C(C)OC(=O)CC(=O)C(C)(O)C(F)(F)F)CC(O)CC1O [Compound of Example 38, (1S,3R,20S)-20-(5,5,5-trifluoro-4-hydroxy-4-methyl-3-oxopentanoyloxy)-9,10-secopregna-5Z,7E,10(19)-triene-1,3-diol] | 2.3 | 33 |
| C=C1C(=CC=C2CCCC3(C)C2CCC3C(C)OC(=O)C=CC(C)(C)O)CC(O)CC1O [Compound of Example 8, (1S,3R,20S)-20-[(2E)-4-hydroxy-4-methylpent-2-enoyloxy]-9,10-secopregna-5Z,7E,10(19)-triene-1,3-diol] | 3.4 | 38 |
| C=C1C(O)CC(=CC=C2CCCC3(C)C2CCC3C(C)OC(=O)CCC(C)(O)C(F)(F)F)CC1O [Compound of Example 44, (1R,3R,20S)-2-methylene-19-nor-20-(5,5,5-trifluoro-4-hydroxy-4-methylpentanoyloxy)-9,10-secopregna-5Z,7E-diene-1,3-diol] | 0.25 | 95 |
| CC(OC(=O)CCC(C)(O)C(F)(F)F)C1CCC2C(=CC=C3CC(O)CC(O)C3)CCCC21C [Compound of Example 73, (1R,3R,20S)-19-nor-20-[(4R)-5,5,5-trifluoro-4-hydroxy-4-methylpentanoyloxy]-9,10-secopregna-5Z,7E-diene-1,3-diol] | 1.3 | 63 |
| CC(OC(=O)CCC(C)(O)C(F)(F)F)C1=CCC2C(=CC=C3CC(O)CC(O)C3)CCCC12C [Compound of Example 68, (1R,3R,20S)-19-nor-20-[(4S)-5,5,5-trifluoro-4-hydroxy-4-methylpentanoyloxy]-9,10-secopregna-5Z,7E,16-triene-1,3-diol] | 0.23 | 126 |
| (1S,3R,20S)-20-(5-hydroxy-5-methylheptanoyloxy)-9,10-secopregna-5Z,7E,10(19)-triene-1,3-diol [Compound of Example 11] | 2.2 |  |
| C=C1C(=CC=C2CCCC3(C)C2CCC3C(C)OC(=O)CN(C)CC(C)(C)O)CC(O)CC1O [Compound of Example 19, (1S,3R,20S)-20-[N-(2-hydroxy-2-methylpropyl)-N-methyl-2-aminoacetyloxy]-9,10-secopregna-5Z,7E,10(19)-triene-1,3-diol] | 2.4 |  |
| C=C1C(=CC=C2CCCC3(C)C2CCC3C(C)OC(=O)CC(O)(CC)CC)CC(O)CC1O [Compound of Example 12, (1S,3R,20S)-20-(3-ethyl-3-hydroxypentanoyloxy)-9,10-secopregna-5Z,7E,10(19)-triene-1,3-diol] | 1.5 |  |
| C=C1C(=CC=C2CCCC3(C)C2CCC3C(C)OC(=O)CC(=O)C(C)(C)O)CC(O)CC1O [Compound of Example 27, (1S,3R,20S)-20-(4-hydroxy-4-methyl-3-oxo-pentanoyloxy)-9,10-secopregna-5Z,7E,10(19)-triene-1,3-diol] | 4.1 |  |
| C=C1C(O)CC(=CC=C2CCCC3(C)C2CCC3C(C)OC(=O)CCCC(C)(C)O)CC1O [Compound of Example 57, (1R,3R,20S)-2-methylene-19-nor-20-(5-hydroxy-5-methylhexanoyloxy)-9,10-secopregna-5Z,7E-diene-1,3-diol] | 0.53 |  |
| C=C1C(=CC=C2CCCC3(C)C2CCC3C(C)OC(=O)CC(C)(O)C(F)(F)F)CC(O)CC1O [Compound of Example 4, (1S,3R,20S)-20-(4,4,4-trifluoro-3-hydroxy-3-methylbutanoyloxy)-9,10-secopregna-5Z,7E,10(19)-triene-1,3-diol] | 0.31 |  |
